Each structure is given as a SMILES string. Like-named read-outs stand apart in the source and are kept apart here.

One assay concerns IL-1β. The assay can be described thus: IL-1β mRNA expression, qRT-PCR in MRC5. The assay is classed as cell-based, human. The conditions noted are these: MRC5, 2 days after HRV-2 or HRV-4 infection; 100 μg/mL PA, 20 μg/mL PGG. As for the experimental part:
(§1) To evaluate the level of gene expression, real-time qRT-PCR with SYBR Green dye was carried out. HRV-2 or HRV-4 infected and noninfected cultures of MRC5 monolayers grown in 25 cm^2 cell culture flasks (Corning, NY) were treated with 100 μg/mL PA or 20 μg/mL PGG. After incubation at 37°C and 5% CO2 for 2 days, total RNA was extracted from the culture cells using the RNeasy Plus Mini Kit (Qiagen, Hilden, Germany) according to the manufacturer’s instructions. Contaminated genomic DNA was removed using RQ1 RNase-free DNase (Promega, Madison, WI). Complementary DNA (cDNA) was synthesized using 1 μg total RNA through a reverse transcription reaction using the SuperScript First-Strand Synthesis Kit (Invitrogen, Carlsbad, CA). […] The PCR conditions were as follows: 50°C for 2 min, 95°C for 10 min, and then 50 cycles of 95°C for 15 s and either 60°C [β2-microglobulin (B2M), interleukin (IL)-6, IL-8, LDLR, ICAM-1, HRV-2, and HRV-4] or 58°C (B2M and IL-1β) or 55°C [B2M, Toll-like receptor 3 (TLR3), tumor necrosis factor (TNF), and interferon beta (IFNβ)] for 30 s. mRNA expression level of target gene was normalized to mRNA expression level for the housekeeping gene B2M and analyzed by the 2^–ΔΔCT method using StepOne Software v2.1 and DataAssist Software (Applied Biosystems). […]
(In general: Quantitative PCR measures a nucleic acid by following its amplification.)

Assay [1] deals with LDLR. In words: Western blot of LDLR in MRC5 cells. The format is cell-based, human. The conditions noted are these: MRC5, 2 days, regardless of HRV-2 infection, similar with HRV-4, 100 μg/mL PA, 20 μg/mL PGG. As for the experimental part:
Cell lysates from infected and noninfected MRC5 cultures 2 days after incubation with or without test compounds were obtained in RIPA buffer and 1% mammalian cell protease inhibitor cocktail according to the manufacturer’s instructions. Working dilutions of primary antibodies were dilulted 500, 2000, and 1000 times for anti-ICAM-1, anti-LDLR, and anti-actin antibodies, respectively. Working dilutions of secondary antibody was 1000, 1000, and 800 for anti-ICAM-1, anti-LDLR, and anti-actin, respectively. Ten micrograms of cell lysates from different treatments were mixed with an equal volume of 5× Laemmli sample buffer, boiled in 10 min, and resolved by electrophoresis in 11% sodium dodecyl sulfate-polyacrylamide gels (SDS-PAGE). […] Differences in protein expressions were quantified using a Molecular Imager Gel Doc XR system (Bio-Rad, Hercules, CA) and normalized to actin expression on the same membrane.
The expressions of ICAM-1 and LDLR were examined using real-time qRT-PCR and Western blot. Furthermore, concentrations of soluble ICAM-1 (sICAM-1) in cell-free culture supernatants 2 days after treatment were measured using a sICAM-1 ELISA Kit (Pierce Biotechnology, Rockford, IL) according to the manufacturer’s instructions. […] The concentrations of ICAM-1 in the test samples were determined from OD values using standard curve of each assay.

The subject of a further assay is HRV-4. In words: Time-of-addition assay, HRV-4 in MRC5 cells. The conditions noted are these: Human rhinovirus sp. The assay is classed as cell-based. As for the experimental part:
The time-of-addition effects of all compounds on HRV-4 were examined according to the method of Choi et al.. In brief, monolayers of MRC5 cells were seeded onto a 96-well culture plate as stated previously. After washing with PBS, 100 μg/mL PA, 20 μg/mL PGG, and 100 μg/mL ribavirin were separately added onto the cells at either before (–1 h), during (0 h), or after (1, 2, 3, 4, 6, 8, 12, 16, 20, and 24 h) HRV-4 infection at 37°C. After 2 days, MTT test and antiviral activity were carried out as stated previously.

The test system of a further assay is IL-6. The assay can be described thus: IL-6 mRNA expression, qRT-PCR in MRC5. The format is cell-based, human. Particulars: MRC5, 2 days after HRV-2 or HRV-4 infection; 100 μg/mL PA, 20 μg/mL PGG. As for the experimental part: as §1
Assay [2] deals with LDLR. The assay can be described thus: LDLR mRNA expression, qRT-PCR in MRC5. The format is cell-based, human. The conditions noted are these: MRC5, 2 days after HRV-2 or HRV-4 infection; 100 μg/mL PA, 20 μg/mL PGG. As for the experimental part:
as §1, with “WI).” for “WI). Complementary DNA (cDNA) was synthesized using 1 μg total RNA through a reverse transcription reaction using the SuperScript First-Strand Synthesis Kit (Invitrogen, Carlsbad, CA).”
The expressions of ICAM-1 and LDLR were examined using real-time qRT-PCR and Western blot. […] The concentrations of ICAM-1 in the test samples were determined from OD values using standard curve of each assay.

Another assay has as its system TLR3. In words: TLR3 mRNA expression, qRT-PCR in MRC5. The assay is classed as cell-based, human. Particulars: MRC5, 2 days after infection; 100 μg/mL PA, 20 μg/mL PGG. As for the experimental part:
as §1

In another assay the test system is IFN-β. In words: IFN-β mRNA expression, qRT-PCR in MRC5. The assay is classed as cell-based, human. Particulars: MRC5, 2 days after HRV-2 or HRV-4 infection; 100 μg/mL PA, 20 μg/mL PGG. The method, then: as §1
The mark [3] stands for this setting: HRV4, 0 h, 100 μg/mL PA, 20 μg/mL PGG, 100 μg/mL ribavirin, read-out: inhibition of HRV-4 infection, added at virus inoculation (0 h).
[4] abbreviates: HRV4, read-out: inhibition of HRV-4 infection, added prior (–1 h) or post (1–24 h) infection, 100 μg/mL PA, 20 μg/mL PGG.

As for `COc1ccc(C(C)=O)c(O)c1` [PA, paeonol], the “effect on HRV-induced IL-1β mRNA expression” value with IL-1β is listed as “disappeared or was significantly reduced”. The “effect on LDLR protein expression” value with LDLR [1] was “no effect”. The inhibition at 100 µg/mL is 57.2% in the assay on HRV-4 (setting [3]) and no more than 40% in the assay with HRV-4 (setting [4]). For the same compound, in the assay on IL-6, the “effect on HRV-induced IL-6 mRNA expression” value is “significantly reduced”. In the assay with LDLR [2], the “effect on LDLR mRNA expression” value is “decreased”. Also, in the assay on TLR3, the “TLR3 mRNA expression vs cultures without treatment” value is “significantly lower”. Further, in the assay with IFN-β, the “effect on HRV-induced IFN-β mRNA expression” value is listed as “meaningfully inhibited”.

On to `O=C(OC[C@H]1O[C@@H](OC(=O)c2cc(O)c(O)c(O)c2)[C@H](OC(=O)c2cc(O)c(O)c(O)c2)[C@@H](OC(=O)c2cc(O)c(O)c(O)c2)[C@@H]1OC(=O)c1cc(O)c(O)c(O)c1)c1cc(O)c(O)c(O)c1` [PGG, 1,2,3,4,6-penta-O-galloyl-β-D-glucopyranose], for which the “effect on HRV-induced IL-1β mRNA expression” value with IL-1β is “disappeared or was significantly reduced”. In the assay on LDLR [1], the “effect on LDLR protein expression” value is “sharp decline”. Also, the inhibition at 20 µg/mL is 54.5% in the assay on HRV-4 (setting [3]) and no more than 40% in the assay with HRV-4 (setting [4]). The “effect on HRV-induced IL-6 mRNA expression” value in the assay on IL-6 is “significantly reduced”. In addition, in the assay with LDLR [2], the “effect on LDLR mRNA expression” value is on record as “decreased”. Besides, the “TLR3 mRNA expression vs cultures without treatment” value in the assay with TLR3 is recorded as “significantly lower”. Further, the “effect on HRV-induced IFN-β mRNA expression” value in the assay with IFN-β is listed as “meaningfully inhibited”.

The values are drawn from PMC4393083, “Antiviral Activity and Possible Mechanism of Action of Constituents Identified in Paeonia lactiflora Root toward Human Rhinoviruses” (PLoS ONE, 2015).
